Consider 15 molecules from US12091385B2, “Pyridinylcyanoguanidine derivative and use thereof” (Rushi Biotech (Hangzhou) Co., Ltd, priority 2021, dated 2024).

Format in all cases: cell-based
For test [1], the system named is Human colon cancer cell HCT-116. Nature of the test: CCK-8 cell proliferation assay, HCT-116. The following applies: HCT116 cells, 72 hrs with drug, CCK-8, OD 450 nm. On the procedure:
(§1) The effect of samples on the proliferation of human tumor cells in vitro was determined by CCK-8 cell proliferation assay.
(§2) The cells were assayed through a method including the following steps: • 1) The cells were digested, counted, and prepared into a cell suspension in a corresponding culture medium (Table 1) (5×10^4 cells/ml for CFPAC-1 and RPMI 8226, and 3.5×10^4 cells/ml for rest cells). The cell suspension was added to each well of a 96-well plate in 100 μl/well. • 2) Then the 96-well plate was incubated for 24 hrs in an incubator at 37° C. and 5% CO2. • 3) The drug was diluted with the culture medium to the required working concentration. 100 μl of the corresponding drug containing medium was added to each well.

In test [2] the test system is Human lung adenocarcinoma cell A549. In words: CCK-8 cell proliferation assay, A549. The note with it: A549 cells, 72 hrs with drug, CCK-8, OD 450 nm. On the procedure: as §1, §2
For orientation: Formazan colour is commonly taken as a measure of viable cells.

The test system of test [3] is Human esophageal cancer cell TE-1. In words: CCK-8 cell proliferation assay, TE-1. The note with it: TE-1 cells, 72 hrs with drug, CCK-8, OD 450 nm. As for the experimental part:
as §1, §2

The test system of test [4] is Human multiple myeloma cell RPMI 8226. In words: CCK-8 cell proliferation assay, RPMI 8226. The note with it: RPMI8226 cells, 72 hrs with drug, CCK-8, OD 450 nm. On the procedure:
as §1, §2

Test [5] concerns Human hepatoma cell HepG2. In words: CCK-8 cell proliferation assay, HepG2. The following applies: HepG2 cells, 72 hrs with drug, CCK-8, OD 450 nm. As for the experimental part: as §1, §2
Test [6] deals with Human pancreatic cancer cell CFPAC-1. Nature of the test: CCK-8 cell proliferation assay, CFPAC-1. The note with it: CFPAC-1 cells, 72 hrs with drug, CCK-8, OD 450 nm. On the procedure:
as §1, §2

In test [7] the test system is Human gastric cancer cell MKN45. Nature of the test: CCK-8 cell proliferation assay, MKN45. The note with it: MKN-45 cells, 72 hrs with drug, CCK-8, OD 450 nm. On the procedure: as §1, §2

Structures are written as SMILES.

In the case of `COc1cccc(OC)c1C(=O)N1CCC(CCCCCNC(=NC#N)Nc2cccnc2)C1` (stereo not drawn) [BSS-PC052, 2-cyano-1-(5-(1-(2,6-dimethoxybenzoyl)pyrrolidine-3-yl)pentyl)-3-(3-pyridinyl)guanidine], the IC50 (usually the concentration at which inhibition is half-maximal) in test [1] stood at 57 nM; in test [2], 29 nM; in test [3], 39 nM; in test [4], 24 nM; in test [5], 44 nM; in test [6], 29 nM. For the same molecule, it took 40 nM to reach half-maximal inhibition in test [7] (IC50).

In the case of `N#CN=C(NCCCCCC1CCN(C(=O)c2ccccc2)C1)Nc1ccncc1` (stereo not drawn) [BSS-PC028, 2-cyano-1-(5-((1-benzoyl)pyrrolidine-3-yl)pentyl)-3-(4-pyridinyl)guanidine], the IC50 in test [1] amounted to 66 nM; in test [2], 50 nM; in test [3], 55 nM; in test [4] it was 31 nM; in test [5], 51 nM; in test [6], 35 nM. The molecule also returned an IC50 in test [7] of 39 nM.

With `N#CN=C(NCCCCCN1CCN(C(=O)c2occc2F)CC1)Nc1ccncc1` [BSS-PC023, 2-cyano-1-(5-(1-(3-fluoro-2-furylformyl)piperazine-4-yl)pentyl)-3-(4-pyridinyl)guanidine], the IC50 in test [1] was 52 nM; in test [2], 42 nM; in test [3], 43 nM; in test [4], 30 nM; in test [5], 57 nM; in test [6], 39 nM. The molecule further returned an IC50 in test [7] of 430 nM.

For the molecule `COc1cccc(OC)c1C(=O)N1CCN(CCCCCNC(=NC#N)Nc2ccncc2)CC1` [BSS-PC006, 2-cyano-1-(5-(1-(2,6-dimethoxybenzoyl)piperazine-4-yl)pentyl)-3-(4-pyridinyl)guanidine], the IC50 in test [1] was 76 nM; in test [2], 73 nM; in test [3], 125 nM; in test [4], 34 nM; in test [5], 92 nM; in test [6], 55 nM. Besides, 89 nM corresponded to half-maximal inhibition in test [7] (IC50).

Turning to `N#CN=C(NCCCCCN1CCN(C(=O)C2Cc3ccccc3O2)CC1)Nc1ccncc1` (stereo not drawn) [BSS-PC021, 2-cyano-1-(5-(1-(2-benzotetrahydrofurylfuryl)piperazine-4-yl)pentyl)-3-(4-pyridinyl)guanidine], the IC50 came out at 106 nM in test [1]; 79 nM in test [2]; 118 nM in test [3]; 49 nM in test [4]; 93 nM in test [5]; 55 nM in test [6]. The molecule further yielded an IC50 in test [7] of 65 nM.

Consider `N#CN=C(NCCCCCC1CCN(C(=O)c2cccs2)C1)Nc1ccncc1` (stereo not drawn) [BSS-PC029, 2-cyano-1-(5-(1-(2-thienylformyl)pyrrolidine-3-yl)pentyl)-3-(4-pyridinyl)guanidine], for which the IC50 in test [1] worked out at 52 nM; in test [2], 35 nM; in test [3], 66 nM; in test [4], 19 nM; in test [5], 64 nM; in test [6] it was 34 nM. In addition, in test [7], the midpoint of inhibition, the IC50, lay at 36 nM.

For the molecule `N#CN=C(NCCCCCC1CCN(C(=O)c2ccc[nH]2)C1)Nc1ccncc1` (stereo not drawn) [BSS-PC033, 2-cyano-1-(5-(1-(2-pyrrolylformyl)pyrrolidine-3-yl)pentyl)-3-(4-pyridinyl)guanidine], the IC50 is 42 nM in test [1]; 51 nM in test [2]; 67 nM in test [3]; 17 nM in test [4]; 76 nM in test [5]; 29 nM in test [6]. In test [7], the IC50 was 33 nM.

Take `N#CN=C(NCCCCCN1CCN(C(=O)c2cccs2)CC1)Nc1ccncc1` [BSS-PC004, 2-cyano-1-(5-(1-(2-thienylformyl)piperazine-4-yl)pentyl)-3-(4-pyridinyl)guanidine]: the IC50 in test [1] was 66 nM; in test [2], 35 nM; in test [3], 95 nM; in test [4] it was 34 nM; in test [5], 82 nM; in test [6], 25 nM. The molecule also yielded an IC50 in test [7] of 43 nM.

With `COc1cccc(OC)c1C(=O)N1CCC(CCCCCCNC(=NC#N)Nc2ccncc2)C1` (stereo not drawn) [BSS-PC055, 2-cyano-1-(6-(1-(2,6-dimethoxybenzoyl)pyrrolidine-3-yl)hexyl)-3-(4-pyridinyl)guanidine], the IC50 turned out to be 82 nM in test [1]; 50 nM in test [2]; 90 nM in test [3]; 41 nM in test [4]; 88 nM in test [5]; 47 nM in test [6]. For the same molecule, in test [7], the IC50 turned out to be 61 nM.

On to `N#CN=C(NCCCCCN1CCN(C(=O)c2ccco2)CC1)Nc1ccncc1` [BSS-PC007, 2-cyano-1-(5-((1-furoyl)piperazine-4-yl)pentyl)-3-(4-pyridinyl)guanidine], for which the IC50 amounted to 55 nM in test [1]; 36 nM in test [2]; 96 nM in test [3]; 29 nM in test [4]; 91 nM in test [5]; 27 nM in test [6]. Also, half-maximal inhibition in test [7] (IC50) was put at 72 nM.

In the case of `N#CN=C(NCCCCCCC1CCN(C(=O)c2cccs2)C1)Nc1ccncc1` (stereo not drawn) [BSS-PC053, 2-cyano-1-(6-(1-(2-thienylformyl)pyrrolidine-3-yl)hexyl)-3-(4-pyridinyl)guanidine], the IC50 worked out at 43 nM in test [1]; 25 nM in test [2]; 30 nM in test [3]; 22 nM in test [4]; 31 nM in test [5]; 22 nM in test [6]. The IC50 in test [7] stood at 34 nM.

For `N#CN=C(NCCCCCC1CCN(C(=O)C2CCCS2)C1)Nc1ccncc1` (stereo not drawn) [BSS-PC034, 2-cyano-1-(5-(1-(2-tetrahydrothienylformyl)pyrrolidine-3-yl)pentyl)-3-(4-pyridinyl)guanidine], the IC50 came out at 27 nM in test [1]; 23 nM in test [2]; 39 nM in test [3]; 18 nM in test [4]; 37 nM in test [5]; 23 nM in test [6]. Also, the IC50 in test [7] came to 31 nM.

Consider `N#CN=C(NCCCCCC1CCN(C(=O)c2[nH]ccc2F)C1)Nc1ccncc1` (stereo not drawn) [BSS-PC049, 2-cyano-1-(5-(1-(3-fluoro-2-pyrrolylformyl)pyrrolidine-3-yl)pentyl)-3-(4-pyridinyl)guanidine], for which the concentration for half-maximal inhibition (IC50) in test [1] came to 55 nM; in test [2], 35 nM; in test [3], 74 nM; in test [4] it was 29 nM; in test [5], 57 nM; in test [6], 31 nM. For the same molecule, 42 nM corresponded to half-maximal inhibition in test [7] (IC50).

As for `N#CN=C(NCCCCCC1CCN(C(=O)c2ccco2)C1)Nc1ccncc1` (stereo not drawn) [BSS-PC032, 2-cyano-1-(5-(1-(furoyl)pyrrolidine-3-yl)pentyl)-3-(4-pyridinyl)guanidine], the IC50 was determined as 52 nM in test [1]; 26 nM in test [2]; 57 nM in test [3]; 29 nM in test [4]; 68 nM in test [5]; 25 nM in test [6]. In addition, the IC50 in test [7] amounted to 61 nM.

Regarding `N#CN=C(NCCCCCC1CCN(C(=O)c2ccco2)C1)Nc1cccnc1` (stereo not drawn) [BSS-PC051], the IC50 in test [1] came to 39 nM; in test [2], 51 nM; in test [3], 40 nM; in test [4], 27 nM; in test [5] it was 42 nM; in test [6], 33 nM. In test [7], this molecule had an IC50 of 31 nM.
